pIC50: −log10 of the molar value.

The target in one data set is Acetylcholinesterase (Homo sapiens, UniProt P22303). In words: Concentration required for the inhibition of acetylcholinesterase.
Data set [1] can be described thus: Aqueous solubility. The format is physicochemical. The following applies: water; for solubility: read-out: S.

Sequence of Acetylcholinesterase (P22303 whole entry): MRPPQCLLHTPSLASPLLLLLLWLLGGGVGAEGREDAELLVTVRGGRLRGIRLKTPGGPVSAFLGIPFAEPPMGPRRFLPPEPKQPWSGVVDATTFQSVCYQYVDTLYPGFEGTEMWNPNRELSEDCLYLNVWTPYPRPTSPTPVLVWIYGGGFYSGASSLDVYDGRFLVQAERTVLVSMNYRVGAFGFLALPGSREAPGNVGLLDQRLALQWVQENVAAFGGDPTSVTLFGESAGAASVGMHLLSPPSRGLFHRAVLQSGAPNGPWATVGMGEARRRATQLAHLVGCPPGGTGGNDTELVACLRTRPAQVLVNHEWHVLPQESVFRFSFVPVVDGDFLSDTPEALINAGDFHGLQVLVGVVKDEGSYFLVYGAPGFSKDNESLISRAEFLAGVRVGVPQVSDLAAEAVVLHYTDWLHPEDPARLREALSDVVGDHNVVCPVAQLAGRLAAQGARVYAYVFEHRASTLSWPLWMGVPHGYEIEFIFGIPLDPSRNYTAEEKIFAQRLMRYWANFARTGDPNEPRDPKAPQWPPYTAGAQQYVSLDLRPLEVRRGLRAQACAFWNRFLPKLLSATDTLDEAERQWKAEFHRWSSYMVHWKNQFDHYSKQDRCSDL

On Acetylcholinesterase, `C=CC[n+]1ccc(CCC(=O)c2cc3cc(OC)c(OC)cc3s2)cc1.[Br-]` showed a pIC50 of 6.27. In addition, the solubility in data set [1] turned out to be 25000 µg/mL.

`COc1cc2cc(CC3CC[N+](C)(Cc4ccccc4)CC3)sc2cc1OC.[Br-]` (stereo not drawn) showed a pIC50 at Acetylcholinesterase of 5.00. For the same compound, the solubility in data set [1] turned out to be 3000 µg/mL.

On to `COc1cc2cc(C(=O)CCc3cc[n+](Cc4ccc([N+](=O)[O-])o4)cc3)sc2cc1OC.[Br-]`, for which the pIC50 against Acetylcholinesterase was 8.35. For the same compound, in data set [1], the solubility was determined as 35000 µg/mL.

In the case of `COc1cc2cc(C=C3CC[N+](C)(Cc4ccccc4)CC3)sc2cc1OC.[Br-]` (stereo not drawn), the pIC50 against Acetylcholinesterase is 5.57. Further, the solubility in data set [1] is 1000 µg/mL.

Take `COc1cc2cc(C(=O)CCC3CC[N+](C)(Cc4ccccc4)CC3)sc2cc1OC.[Br-]` (stereo not drawn): the solubility in data set [1] came to 2000 µg/mL.

`COC(=O)C[N+]1(C)CCC(CCC(=O)c2cc3cc(OC)c(OC)cc3s2)CC1.[Br-]` (stereo not drawn) gave a pIC50 against Acetylcholinesterase of 7.27. Further, the solubility in data set [1] was 60000 µg/mL.

The compound `CCOCC[n+]1ccc(CCC(=O)c2cc3cc(OC)c(OC)cc3s2)cc1` had a pIC50 against Acetylcholinesterase of 8.15. In addition, in data set [1], the solubility was found to be 50000 µg/mL.

With `COc1cc2cc(C(=O)CC(O)CCC3CC[N+](C)(Cc4ccccc4)CC3)sc2cc1OC.[Br-]` (stereo not drawn), the pIC50 at Acetylcholinesterase was 6.42. Besides, the solubility in data set [1] came to 2500 µg/mL.

Consider `COc1cc2cc(C(=O)CCc3cc[n+](Cc4ccccc4)cc3)sc2cc1OC`, for which the solubility in data set [1] was found to be 2000 µg/mL.

In turn, `COc1cc2cc(C(=O)CC(O)C3CC[N+](C)(Cc4ccccc4)CC3)sc2cc1OC` (stereo in doubt; 9) [listing 1 of 2 here] showed a pIC50 against Acetylcholinesterase of 6.72.

In the case of `COc1cc2cc(C(=O)CCC3CC[N+](C)(CC4CCCCO4)CC3)sc2cc1OC.[Br-]` (stereo not drawn), the pIC50 against Acetylcholinesterase was 7.55. In addition, the solubility in data set [1] worked out at 1500 µg/mL.

As to `COc1cc2cc(C(=O)CC3(O)CC[N+](C)(Cc4ccccc4)CC3)sc2cc1OC.[Br-]` (stereo not drawn), the solubility in data set [1] was 1250 µg/mL.

At Acetylcholinesterase, `COc1cc2cc(C(=O)CCC3CC[N+](C)(CC#N)CC3)sc2cc1OC.[Br-]` (stereo not drawn) had a pIC50 of less than 6.00. The solubility in data set [1] is 2000 µg/mL.

Consider `COc1cc2cc(C(=O)CC(O)C3CC[N+](C)(Cc4ccccc4)CC3)sc2cc1OC.[Br-]` (single isomer, unassigned; (-)), for which the pIC50 against Acetylcholinesterase was 6.18. Besides, the S in data set [1] turned out to be 8 mg/mL.

Turning to `COc1cc2cc(C(=O)CCCCC3CC[N+](C)(Cc4ccccc4)CC3)sc2cc1OC.[Br-]` (stereo not drawn), the pIC50 against Acetylcholinesterase was 6.96. For the same compound, in data set [1], the solubility is 1000 µg/mL.

For the compound `COc1cc2cc(C(=O)CCc3cc[n+](Cc4ccsc4)cc3)sc2cc1OC`, at Acetylcholinesterase, the negative-log IC50 (pIC50) was 8.22. The solubility in data set [1] came to 2000 µg/mL.

The compound `COCC[N+]1(C)CCC(CCC(=O)c2cc3cc(OC)c(OC)cc3s2)CC1.[Br-]` (stereo not drawn) showed a negative logarithm of the IC50 (pIC50) on Acetylcholinesterase of 7.28. Moreover, the solubility in data set [1] worked out at 60000 µg/mL.

For the compound `COc1cc2cc(C(=O)CCc3cc[n+](CC4CCC4)cc3)sc2cc1OC.[Br-]`, the pIC50 at Acetylcholinesterase was 7.40. Moreover, in data set [1], the solubility worked out at 6000 µg/mL.

`COc1cc2cc(C(=O)CCc3cc[n+](Cc4ccc(F)cc4)cc3)sc2cc1OC` showed a pIC50 on Acetylcholinesterase of 8.59. Moreover, the solubility in data set [1] was found to be 1000 µg/mL.

`COc1cc2cc(C(=O)CC3=CC[N+](C)(Cc4ccccc4)CC3)sc2cc1OC.[Br-]` (stereo not drawn) showed a pIC50 against Acetylcholinesterase of 6.12. In addition, the solubility in data set [1] was 20000 µg/mL.

For the compound `COc1cc2cc(C(=O)CCC3CC[N+](C)(CC(=O)OC(C)(C)C)CC3)sc2cc1OC.[Br-]` (stereo not drawn), the pIC50 on Acetylcholinesterase was 7.10. The solubility in data set [1] turned out to be 1500 µg/mL.

With `COc1cc2cc(C(=O)C=C3CC[N+](C)(Cc4ccccc4)CC3)sc2cc1OC.[Br-]` (stereo not drawn), the pIC50 against Acetylcholinesterase is 6.28. Moreover, the solubility in data set [1] was found to be 25000 µg/mL.

Regarding `CCC[n+]1ccc(CCC(=O)c2cc3cc(OC)c(OC)cc3s2)cc1.[Br-]`, the solubility in data set [1] stood at 16000 µg/mL.

Regarding `COC(=O)c1ccc(C[n+]2ccc(CCC(=O)c3cc4cc(OC)c(OC)cc4s3)cc2)cc1`, the solubility in data set [1] came out at 3500 µg/mL.

Consider `COc1cc2cc(C(=O)CC(O)C3CC[N+](C)(Cc4ccccc4)CC3)sc2cc1OC.[Br-]` (stereo in doubt; 6), for which the pIC50 on Acetylcholinesterase was 7.37. The same compound had a S in data set [1] of 10 mg/mL.

At Acetylcholinesterase, `COc1cc2cc(C(O)C3CC[N+](C)(Cc4ccccc4)CC3)sc2cc1OC.[Br-]` (stereo not drawn) showed a pIC50 of 4.71. In data set [1], the solubility came to 2000 µg/mL.

As for `COCC[n+]1ccc(CCC(=O)c2cc3cc(OC)c(OC)cc3s2)cc1`, the pIC50 against Acetylcholinesterase is 7.52. Besides, the solubility in data set [1] stood at 33000 µg/mL.

Consider `COc1cc2cc(C(=O)CCc3cc[n+](CC4CC4)cc3)sc2cc1OC.[Br-]`, for which the pIC50 at Acetylcholinesterase was 6.96. For the same compound, in data set [1], the solubility is 15000 µg/mL.

In turn, `COc1cc2cc(C(=O)CC(O)C3CC[N+](C)(Cc4ccccc4)CC3)sc2cc1OC.[Br-]` (single isomer, unassigned; (+)) showed a pIC50 against Acetylcholinesterase of 6.66. Besides, in data set [1], the solubility came to 10000 µg/mL.

In the case of `COc1cc2cc(C(=O)CCC3CC[N+](C)(Cc4ccc([N+](=O)[O-])o4)CC3)sc2cc1OC.[Br-]` (stereo not drawn), on Acetylcholinesterase, the pIC50 was 7.49. In addition, the solubility in data set [1] turned out to be 600 µg/mL.

For the compound `COc1cc2cc(C(=O)CC(O)C3CC[N+](C)(Cc4ccccc4)CC3)sc2cc1OC` (stereo in doubt; 9) [listing 2 of 2 here], in “Aqueous solubility”, the Solubility was 10000 µg/mL.

At Acetylcholinesterase, `COc1cc2cc(C(=O)CCC3CC[N+](C)(CCOc4ccccc4)CC3)sc2cc1OC.[Br-]` (stereo not drawn) gave a pIC50 of 6.41. Moreover, the solubility in data set [1] stood at 900 µg/mL.

With `COc1cc2cc(C(=O)CCc3cc[n+](C)cc3)sc2cc1OC.[Br-]`, at Acetylcholinesterase, the negative-log IC50 (pIC50) was 6.05. In addition, the solubility in data set [1] came out at 3000 µg/mL.

`COc1cc2cc(C(=O)CC(OC)C3CC[N+](C)(Cc4ccccc4)CC3)sc2cc1OC.[Br-]` (stereo not drawn): the pIC50 against Acetylcholinesterase was 6.92. For the same compound, in data set [1], the solubility came out at 1500 µg/mL.

On Acetylcholinesterase, `CC[n+]1ccc(CCC(=O)c2cc3cc(OC)c(OC)cc3s2)cc1.[Br-]` gave a pIC50 of 6.55. In addition, the solubility in data set [1] was found to be 25000 µg/mL.

Usually pIC50 stands for the IC50 on a negative log10 scale, so that one unit is a factor of ten. Read a low pIC50 as a high IC50. For orientation: Solubility means the dissolved amount per volume that the medium holds.

The values above are taken from ChEMBL document CHEMBL1135325, “Novel piperidinium and pyridinium agents as water-soluble acetylcholinesterase inhibitors for the reversal of neuromuscular blockade” (Bioorg Med Chem Lett, 2002).
